{"source": "patent US8388939B2", "about": "“Moisturizing cosmetic composition comprising a combination of homarine and erythritol” (Sederma, S.A.S., priority 2008, dated 2013)", "tested_on": "Human keratinocytes", "assay": "Synergistic osmo-protective activity of homarine and erythritol after NaCl hyper-osmotic stress; UPTIBLUE cell count", "type": "cell-based", "description": "Human kerotinocytes were cultured for 24 h in a culture medium (DMEMc+FCS) than incubated until confluence was obtained. At this stage, the cells were putted in pre-contact with the compounds for 24 h. The day after, a 5h NaCl stress in the presence of the compounds was applied to the cells in the DMEMc medium (without FCS, with BSA) containing 150 mM of NaCl. After this stress, cells were rinced and were recovered with or without the compounds to be tested in the same medium as before (T0). Recovery was estimated at long term by measuring the survival at T5 days and at T7 days after the beginning of the stress (T0). The compounds were tested at the following concentrations: erythritol 0.6%, homarine 0.006% (corresponding to 1×) and homarine 0.06% (corresponding to 10×).\nThe UPTIBLUE technic was used to visualize and quantify the cell number after the hyper-osmotic shock and the osmo-protective effect of the compound was thus evaluated."}
{"smiles": "OC[C@@H](O)[C@@H](O)CO", "note": "[Erythritol]", "values": [{"measurement": "% of change in cell count versus control (post-stress)", "setting": "T0, erythritol 0.6% alone", "value": "−8", "unit": "%"}, {"measurement": "% of change in cell count versus control (post-stress)", "setting": "T5 days, erythritol 0.6% alone", "value": "+39%"}, {"measurement": "% of change in cell count versus control (post-stress)", "setting": "T7 days, erythritol 0.6% alone", "value": "+62%"}]}
{"smiles": "C[n+]1ccccc1C(=O)[O-]", "note": "[Homarine]", "values": [{"measurement": "Osmo-protective effect with regards a hyper-osmotic stress, in words", "setting": "5 and 7 days after hyper-osmotic shock", "value": "dose dependant"}, {"measurement": "% of change in cell count versus control (post-stress)", "setting": "T0, homarine 0.006% (1x), erythritol 0.6% where combined", "value": "+10%"}, {"measurement": "% of change in cell count versus control (post-stress)", "setting": "T0, homarine 0.06% (10x), erythritol 0.6% where combined", "value": "+14%"}, {"measurement": "% of change in cell count versus control (post-stress)", "setting": "T5 days, homarine 0.006% (1x), erythritol 0.6% where combined", "value": "+33%"}, {"measurement": "% of change in cell count versus control (post-stress)", "setting": "T5 days, homarine 0.06% (10x), erythritol 0.6% where combined", "value": "+93%"}, {"measurement": "% of change in cell count versus control (post-stress)", "setting": "T7 days, homarine 0.006% (1x), erythritol 0.6% where combined", "value": "+26%"}, {"measurement": "% of change in cell count versus control (post-stress)", "setting": "T7 days, homarine 0.06% (10x), erythritol 0.6% where combined", "value": "+130%"}]}
